Patent US20110224231A1, “Novel Lactams as Beta Secretase Inhibitors” (Pfizer Inc., priority 2008, published 2011)
Where a name gives a salt, the structure may show the parent alone. Read-outs that look alike come from different tables or passages of the source.

Biological target: T1, soluble human BACE (Homo sapiens, UniProt P56817)
T1 construct: cells secreting human recombinant soluble BACE; made in house; conditioned medium
Assay: BACE activity Cell Free Assay (ELISA of cleaved synthetic APP substrate)
Assay type: biochemical

[1] = Table 4, cell free, soluble human BACE, pH 4.5, 3 μM substrate, read-out: BACE Activity (Cell Free Assay IC50)

T1 sequence (P56817 46-457 limits assumed): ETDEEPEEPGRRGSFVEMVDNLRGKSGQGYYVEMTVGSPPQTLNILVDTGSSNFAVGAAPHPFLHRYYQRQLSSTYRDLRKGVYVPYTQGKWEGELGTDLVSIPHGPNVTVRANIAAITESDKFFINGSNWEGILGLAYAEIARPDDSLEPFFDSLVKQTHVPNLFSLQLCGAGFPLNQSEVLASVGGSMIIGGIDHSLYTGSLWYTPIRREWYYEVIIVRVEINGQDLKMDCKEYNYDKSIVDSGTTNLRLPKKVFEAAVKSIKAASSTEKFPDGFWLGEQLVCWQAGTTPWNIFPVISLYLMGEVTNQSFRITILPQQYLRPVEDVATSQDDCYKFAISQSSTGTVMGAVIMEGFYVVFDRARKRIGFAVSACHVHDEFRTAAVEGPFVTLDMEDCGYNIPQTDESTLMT

Row | Structure (SMILES) | IC50 [µM] | IC50 [1] [µM]
1 | CC(C)Oc1cccc(CN2CC[C@]3(CC(O)C(=O)N3c3cccc(F)c3)C[C@@H]2C)c1 (mixture of isomers) [Example 92, Racemic (3R/S,5R,7S)(3R/S,5S,7R)˜1˜(3˜fluorophenyl)˜3˜hydroxy˜8˜(3˜isopropoxybenzyl)-7-methyl-1,8-diazaspiro[4.5]decan-2-one, hydrochloride salt] | 10 to 100 | –
2 | CC(C)Oc1cccc(CN2CC[C@]3(C=CC(=O)N3c3ccccn3)C[C@@H]2C)c1 [#101] | 10 to 100 | –
3 | CC(C)Oc1cccc(CN2CC[C@]3(C=CC(=O)N3c3ccncc3)C[C@@H]2C)c1 [#102] | 100 to 300 | –
4 | CC(C)Oc1cccc(CN2CC[C@]3(C=CC(=O)N3c3ccc(Cl)cn3)C[C@@H]2C)c1 [#104] | – | 10 to 100
5 | Cc1ccc(N2C(=O)C=C[C@]23CCN(Cc2cccc(OC(C)C)c2)[C@@H](C)C3)nc1 [#105] | – | 10 to 100
6 | Cc1cccc(N2C(=O)C=C[C@]23CCN(Cc2cccc(OC(C)C)c2)[C@@H](C)C3)n1 [#107] | 1 to 10 | –
7 | Cc1ccnc(N2C(=O)C=C[C@]23CCN(Cc2cccc(OC(C)C)c2)[C@@H](C)C3)c1 [#108] | 1 to 10 | –
8 | Cc1ccc(N2C(=O)C=C[C@]23CCN(Cc2cccc(OC(C)C)c2)[C@@H](C)C3)cn1 [#109] | 10 to 100 | –
9 | Cc1cc(N2C(=O)C=C[C@]23CCN(Cc2cccc(OC(C)C)c2)[C@@H](C)C3)ccn1 [#110] | 10 to 100 | –
10 | CC(C)Oc1cccc(CN2CC[C@]3(C=CC(=O)N3c3cccnc3)C[C@@H]2C)c1 [#111] | 10 to 100 | –
11 | COc1cc(F)cc(N2C(=O)C=C[C@]23CCN(Cc2cccc(OC(C)C)c2)[C@@H](C)C3)c1 [#112] | 1 to 10 | –
12 | CC(C)Oc1cccc(CN2CC[C@]3(C=CC(=O)N3c3cnn(C)c3)C[C@@H]2C)c1 [#113] | 10 to 100 | –
13 | Cc1cncc(N2C(=O)C=C[C@]23CCN(Cc2cccc(OC(C)C)c2)[C@@H](C)C3)c1 [#114] | 1 to 10 | –
14 | Cc1cccnc1N1C(=O)C=C[C@]12CCN(Cc1cccc(OC(C)C)c1)[C@@H](C)C2 [#115] | 10 to 100 | –
15 | CC(C)Oc1cccc(CN2CC[C@]3(C=CC(=O)N3c3cncc(F)c3)C[C@@H]2C)c1 [#116] | 1 to 10 | –
16 | CC(C)Oc1cccc(CN2CC[C@]3(C=CC(=O)N3c3cncc(Cl)c3)C[C@@H]2C)c1 [#117] | 1 to 10 | –
17 | CC(C)Oc1cccc(CN2CC[C@]3(C=CC(=O)N3c3cncc(C(F)(F)F)c3)C[C@@H]2C)c1 [#118] | 10 to 100 | –
18 | CC(C)Oc1cccc(CN2CC[C@]3(C=CC(=O)N3c3cc(C(F)(F)F)ccn3)C[C@@H]2C)c1 [#119] | 100 to 300 | –
19 | CC(C)Oc1cccc(CN2CC[C@]3(C=CC(=O)N3c3cncc(C#N)c3)C[C@@H]2C)c1 [#120] | 10 to 100 | –
20 | Cc1nc(N2C(=O)C=C[C@]23CCN(Cc2cccc(OC(C)C)c2)[C@@H](C)C3)cs1 [#121] | 1 to 10 | –

Row | Structure (SMILES) | IC50 [µM] | IC50 [1] [µM]
21 | CC(C)Oc1cccc(CN2CC[C@]3(C=CC(=O)N3c3ccn(C)n3)C[C@@H]2C)c1 [#122] | 10 to 100 | –
22 | CCn1cc(N2C(=O)C=C[C@]23CCN(Cc2cccc(OC(C)C)c2)[C@@H](C)C3)cn1 [#123] | 100 to 300 | –
23 | CC(C)Oc1cccc(CN2CC[C@]3(C=CC(=O)N3c3ccc(F)cn3)C[C@@H]2C)c1 [#124] | – | 10 to 100
24 | CC(C)Oc1cccc(CN2CC[C@]3(C=CC(=O)N3c3cccc(C(F)(F)F)n3)C[C@@H]2C)c1 [#125] | – | 10 to 100
25 | Cc1cncc(N2C(=O)C=C[C@]23CCN(Cc2cccc(OC(C)C)c2)[C@@H](C)C3)n1 [#126] | – | 10 to 100
26 | CC(C)n1ncc2ccc(CN3CC[C@]4(C=CC(=O)N4c4cnccn4)C[C@@H]3C)cc21 [#130, (5R,7S)-8-[(1-isopropyl-1H-indazol-6-yl)methyl]-7-methyl-1-pyrazin-2-yl-1,8-diazaspiro[4.5]dec-3-en-2-one] | 10 to 100 | –
27 | C[C@H]1C[C@@]2(C=CC(=O)N2c2cnccn2)CCN1Cc1scnc1CC1CCC1 [#131, (5R,7S)-8-([4-(cyclobutylmethyl)-1,3-thiazol-5-yl]methyl)-7-methyl-1-pyrazin-2-yl-1,8-diazaspiro[4.5]dec-3-en-2-one] | 1 to 10 | –
28 | CC(C)Oc1cc(CN2CC[C@]3(C=CC(=O)N3c3cnccn3)C[C@@H]2C)ccc1O [#132, (5R,7S)-8-(4-hydroxy-3-isopropoxybenzyl)-7-methyl-1-pyrazin-2-yl-1,8-diazaspiro[4.5]dec-3-en-2-one] | 0.001 to 1 | –
29 | CCCn1nccc1CN1CC[C@]2(C=CC(=O)N2c2cnccn2)C[C@@H]1C [#133, (5R,7S)-7-methyl-8-[(1-propyl-1H-pyrazol-5-yl)methyl]-1-pyrazin-2-yl-1,8-diazaspiro[4.5]dec-3-en-2-one] | 100 to 300 | –
30 | C[C@H]1C[C@@]2(C=CC(=O)N2c2cnccn2)CCN1Cc1ccnn1CC(F)(F)F [#134, (5R,7S)-7-methyl-1-pyrazin-2-yl-8-[(1-(2,2,2-trifluoroethyl)-1H-pyrazol-5-yl]methyl]-1,8-diazaspiro[4.5]dec-3-en-2-one] | 100 to 300 | –
31 | Cc1cccc(N2C(=O)C=C[C@]23CCN(Cc2ccc(O)c(OC(C)C)c2)[C@@H](C)C3)n1 [#135, (5R,7S)-8-(4-hydroxy-3-isopropoxybenzyl)-7-methyl-1-(6-methylpyridin-2-yl)-1,8-diazaspiro[4.5]dec-3-en-2-one] | 0.001 to 1 | –
32 | Cc1cccc(N2C(=O)C=C[C@]23CCN(Cc2ccc(O)c(-c4sccc4C)c2)[C@@H](C)C3)n1 [#136, (5R,7S)-8-[4-hydroxy-3-(3-methyl-2-thienyl)benzyl]-7-methyl-1-(6-methylpyridin-2-yl)-1,8-diazaspiro[4.5]dec-3-en-2-one] | 0.001 to 1 | –
33 | Cc1cccc(N2C(=O)C=C[C@]23CCN(Cc2scnc2CC2CCC2)[C@@H](C)C3)n1 [#137, (5R,7S)-8-{[4-(cyclobutylmethyl)-1,3-thiazol-5-yl]methyl}-7-methyl-1-(6-methylpyridin-2-yl)-1,8-diazaspiro[4.5]dec-3-en-2-one] | 1 to 10 | –
34 | CCCn1nccc1CN1CC[C@]2(C=CC(=O)N2c2cccc(C)n2)C[C@@H]1C [#138, (5R,7S)-7-methyl-1-(6-methylpyridin-2-yl)-8-[(1-propyl-1H-pyrazol-5-yl)methyl]-1,8-diazaspiro[4.5]dec-3-en-2-one] | 10 to 100 | –
35 | Cc1cccc(N2C(=O)C=C[C@]23CCN(Cc2ccc4cnn(C(C)C)c4c2)[C@@H](C)C3)n1 [#139, (5R,7S)-8-[(1-isopropyl-1H-indazol-6-yl)methyl]-7-methyl-1-(6-methylpyridin-2-yl)-1,8-diazaspiro[4.5]dec-3-en-2-one] | 100 to 300 | –
36 | C[C@H]1C[C@@]2(C=CC(=O)N2c2cnccn2)CCN1Cc1ccc(O)c(Cl)c1 [#140, (5R,7S)-8-(3-chloro-4-hydroxybenzyl)-7-methyl-1-pyrazin-2-yl-1,8-diazaspiro[4.5]dec-3-en-2-one, ammonium salt] | 10 to 100 | –
37 | Cc1cccc(N2C(=O)C=C[C@]23CCN(Cc2ccc(O)c(Cl)c2)[C@@H](C)C3)n1 [#141, (5R,7S)-8-(3-chloro-4-hydroxybenzyl)-7-methyl-1-(6-methylpyridin-2-yl)-1,8-diazaspiro[4.5]dec-3-en-2-one, ammonium salt] | 1 to 10 | –
38 | CC(C)Cc1ocnc1CN1CC[C@]2(C=CC(=O)N2c2cccc(F)c2)C[C@@H]1C [#200] | 1 to 10 | –
39 | C[C@H]1C[C@@]2(C=CC(=O)N2c2cccc(F)c2)CCN1Cc1ccc(O)c(Cl)c1 [#201] | 1 to 10 | –
40 | Cc1ccccc1-c1cc(CN2CC[C@]3(C=CC(=O)N3c3cccc(F)c3)C[C@@H]2C)ccc1O [#202] | 0.001 to 1 | –

Row | Structure (SMILES) | IC50 [µM] | IC50 [1] [µM]
41 | CC[C@@H](C)Oc1cccc(CN2CC[C@]3(C=CC(=O)N3c3cccc(F)c3)C[C@@H]2C)c1 [#203] | 1 to 10 | –
42 | CC(C)C(=O)c1cc(CN2CC[C@]3(C=CC(=O)N3c3cccc(F)c3)C[C@@H]2C)ccc1O [#204] | 1 to 10 | –
43 | CC(C)C(O)c1cc(CN2CCC3(C=CC(=O)N3c3cccc(F)c3)CC2C)ccc1O (stereo not shown) [#205] | 0.001 to 1 | –
44 | C[C@H]1C[C@@]2(C=CC(=O)N2c2cccc(F)c2)CCN1Cc1ccc(O)c(-c2ccccc2Cl)c1 [#206] | 0.001 to 1 | –
45 | C[C@H]1C[C@@]2(C=CC(=O)N2c2cccc(F)c2)CCN1Cc1ncoc1-c1ccccc1 [#207] | 10 to 100 | –
46 | C[C@H]1C[C@@]2(C=CC(=O)N2c2cccc(F)c2)CCN1Cc1ccc(O)c(-c2ccccc2F)c1 [#208] | 0.001 to 1 | –
47 | Cc1ccc(F)cc1-c1cc(CN2CC[C@]3(C=CC(=O)N3c3cccc(F)c3)C[C@@H]2C)ccc1O [#209] | 0.001 to 1 | –
48 | C[C@H]1C[C@@]2(C=CC(=O)N2c2cccc(F)c2)CCN1Cc1scnc1CC1CC1 [#210] | 0.001 to 1 | –
49 | C[C@H]1C[C@@]2(C=CC(=O)N2c2cccc(F)c2)CCN1Cc1scnc1CC1CCC1 [#211] | 0.001 to 1 | –
50 | Cc1ccsc1-c1cc(CN2CC[C@]3(C=CC(=O)N3c3cccc(F)c3)C[C@@H]2C)ccc1O [#212] | 0.001 to 1 | –
51 | CC(C)Cc1ocnc1CN1CC[C@]2(CCC(=O)N2c2cccc(F)c2)C[C@@H]1C [#213] | 10 to 100 | –
52 | C[C@H]1C[C@@]2(CCC(=O)N2c2cccc(F)c2)CCN1Cc1ccc(O)c(Cl)c1 [#214] | 1 to 10 | –
53 | Cc1ccccc1-c1cc(CN2CC[C@]3(CCC(=O)N3c3cccc(F)c3)C[C@@H]2C)ccc1O [#215] | 0.001 to 1 | –
54 | CC[C@@H](C)Oc1cccc(CN2CC[C@]3(CCC(=O)N3c3cccc(F)c3)C[C@@H]2C)c1 [#216] | 1 to 10 | –
55 | Cc1ccsc1-c1cc(CN2CC[C@]3(CCC(=O)N3c3cccc(F)c3)C[C@@H]2C)ccc1O [#217] | 1 to 10 | –
56 | CC(C)Oc1cc(CN2CC[C@]3(C=CC(=O)N3c3cccc(F)c3)C[C@@H]2C)ccc1O [Example 87, (5R7S)-1-(3-fluorophenyl)-8-(4-hydroxy-3-isopropoxybenzyl)-7-methyl-1,8-diazaspiro[4,5]dec-3-en-2-one hydrochloride] | 0.001 to 1 | –
57 | Cc1ccccc1-c1cccc(CN2CC[C@]3(CCC(=O)N3c3cccc(F)c3)C[C@@H]2C)c1 [Example 88, (5R,7S)˜1˜(3˜fluorophenyl)˜7˜methyl˜8˜[(2′˜methylbiphenyl˜3˜yl)methyl]˜1,8˜diazaspiro[4.5]decan˜2˜one hydrochloride] | 1 to 10 | –
58 | CC(C)Oc1cc(CN2CC[C@]3(CCC(=O)N3c3cccc(F)c3)C[C@@H]2C)ccc1O [Example 89, (5R,7S)˜1˜(3˜fluorophenyl)˜8˜(4˜hydroxy˜3˜isopropoxybenzyl)˜7˜methyl˜1,8˜diazaspiro[4.5]decan˜2˜one hydrochloride] | 0.001 to 1 | –
